Drawing on US12643881B2, “Bicyclic amine CDK12 inhibitors” (Incyte Corporation, priority 2021, dated 2026), this text covers IC50 for 27 compounds.

The target in this test is T1, CDK12 complexed with Cyclin K (Homo sapiens, UniProt Q9NYV4).
T1 construct: GST (N)
T1 sequence (Q9NYV4 whole entry): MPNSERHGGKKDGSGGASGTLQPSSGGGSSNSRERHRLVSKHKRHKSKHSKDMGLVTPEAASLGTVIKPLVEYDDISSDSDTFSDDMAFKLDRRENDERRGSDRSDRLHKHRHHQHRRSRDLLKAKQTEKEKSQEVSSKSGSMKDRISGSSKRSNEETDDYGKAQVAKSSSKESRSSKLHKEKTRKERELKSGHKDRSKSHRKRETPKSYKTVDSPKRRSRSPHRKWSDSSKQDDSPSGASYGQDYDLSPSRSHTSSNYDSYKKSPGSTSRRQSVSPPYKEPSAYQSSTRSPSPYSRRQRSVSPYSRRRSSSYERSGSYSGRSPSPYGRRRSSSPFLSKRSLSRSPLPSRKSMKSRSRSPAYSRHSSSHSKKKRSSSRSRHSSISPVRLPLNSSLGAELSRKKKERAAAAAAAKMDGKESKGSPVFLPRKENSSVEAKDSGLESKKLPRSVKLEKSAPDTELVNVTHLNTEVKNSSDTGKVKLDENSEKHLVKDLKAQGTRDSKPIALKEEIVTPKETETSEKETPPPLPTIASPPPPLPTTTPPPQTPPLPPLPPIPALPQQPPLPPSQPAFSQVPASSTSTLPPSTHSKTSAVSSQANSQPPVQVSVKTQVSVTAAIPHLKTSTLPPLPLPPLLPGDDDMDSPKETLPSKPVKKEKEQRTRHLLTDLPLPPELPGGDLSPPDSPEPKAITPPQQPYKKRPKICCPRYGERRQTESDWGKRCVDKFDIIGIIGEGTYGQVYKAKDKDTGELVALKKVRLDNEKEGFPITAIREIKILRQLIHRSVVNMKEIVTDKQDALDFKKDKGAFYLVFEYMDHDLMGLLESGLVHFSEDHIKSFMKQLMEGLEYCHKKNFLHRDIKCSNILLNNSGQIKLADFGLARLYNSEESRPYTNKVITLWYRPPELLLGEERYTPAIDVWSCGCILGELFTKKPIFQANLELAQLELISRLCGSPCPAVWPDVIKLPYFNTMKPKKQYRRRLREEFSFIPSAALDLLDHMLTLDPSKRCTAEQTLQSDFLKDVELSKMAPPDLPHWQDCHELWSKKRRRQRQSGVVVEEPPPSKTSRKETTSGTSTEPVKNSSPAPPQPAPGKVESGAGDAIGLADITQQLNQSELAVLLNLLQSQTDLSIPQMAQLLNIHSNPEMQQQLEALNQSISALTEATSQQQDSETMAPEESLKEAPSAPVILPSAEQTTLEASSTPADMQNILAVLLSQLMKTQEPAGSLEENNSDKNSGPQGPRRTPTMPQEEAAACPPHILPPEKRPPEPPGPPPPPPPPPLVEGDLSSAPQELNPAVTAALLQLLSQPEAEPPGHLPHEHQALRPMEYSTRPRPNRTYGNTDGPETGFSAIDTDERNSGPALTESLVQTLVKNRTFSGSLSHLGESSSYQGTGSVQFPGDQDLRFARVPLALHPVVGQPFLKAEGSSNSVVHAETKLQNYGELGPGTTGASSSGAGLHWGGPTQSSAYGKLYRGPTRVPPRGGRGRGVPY
T1 sequence (O75909 whole entry partner): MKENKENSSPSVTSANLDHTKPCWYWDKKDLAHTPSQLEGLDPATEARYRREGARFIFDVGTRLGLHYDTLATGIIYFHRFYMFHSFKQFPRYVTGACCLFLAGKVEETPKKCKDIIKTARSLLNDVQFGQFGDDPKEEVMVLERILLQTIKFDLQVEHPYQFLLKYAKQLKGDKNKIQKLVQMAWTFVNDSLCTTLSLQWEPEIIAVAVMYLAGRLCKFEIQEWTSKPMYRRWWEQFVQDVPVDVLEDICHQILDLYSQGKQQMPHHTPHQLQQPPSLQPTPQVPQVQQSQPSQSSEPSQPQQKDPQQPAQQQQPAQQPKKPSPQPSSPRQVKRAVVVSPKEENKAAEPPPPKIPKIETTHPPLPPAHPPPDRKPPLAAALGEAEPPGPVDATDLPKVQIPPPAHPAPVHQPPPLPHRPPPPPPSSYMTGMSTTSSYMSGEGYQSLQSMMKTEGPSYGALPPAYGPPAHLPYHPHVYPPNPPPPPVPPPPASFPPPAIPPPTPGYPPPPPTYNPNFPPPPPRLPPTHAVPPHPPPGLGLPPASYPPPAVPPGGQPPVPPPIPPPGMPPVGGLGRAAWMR
Put plainly: CDK Enzymatic Assays (HTRF, LANCE Ultra kinase assay), Example A1. It counts as biochemical. The note with it: enzyme pre-incubated with compounds for 60 minutes prior to addition of ATP (1 mM final) and Ulight-peptide; reaction 60-90 minutes at room temperature. The source says: Example A1. CDK Enzymatic Assays
The following activity of the CDK enzymes in complex with their respective cyclins we assayed: CDK1 complexed with Cyclin B1; CDK2 complexed with Cyclin E1; CDK4 complexed with Cyclin D1; CDK6 complexed with Cyclin D1; CDK6 complexed with Cyclin D3; CDK9 complexed with Cyclin T1; CDK7 complexed with Cyclin H/MAT1; CDK2 complexed with Cyclin A2; CDK5 complexed with p35; CDK12 complexed with Cyclin K; CDK13 complexed with Cyclin K. These in vitro enzyme activity are assayed using homogeneous time-resolved energy transfer (HTRF), which measures phosphorylation of a peptide substrate. The LANCER Ultra kinase assay (PerkinElmer) uses a ULight™-labeled EIF4E-binding protein 1 (THR37/46) peptide (DYSTTPGGTLFSTTPGTRI (SEQ ID NO: 1)) substrate and a Europium-labeled anti-phospho-4E-BP1 antibody (CDK2, CDK1, CDK4, CDK6, CDK9, CDK12, CDK13) or ULight™-labeled Myelin Basic Protein peptide (VTPRTPPP (SEQ ID NO: 2)) substrate and a Europium-labeled anti-phospho-MBP antibody (CDK7). Each CDK enzyme activity assays utilized human CDK co-expressed as N-terminal GST-tagged protein with its full length cyclin partner using a baculovirus expression system.
Enzyme was pre-incubated with compounds for 30 minutes (CDK1,2,4,6,9) or 60 minutes (CDK7, CDK12, CDK13) prior to addition of ATP and Ulight-peptide (1 mM and 50 nM final, respectively), in assay buffer containing 50 mM HEPES pH 7.5, 1 mM EGTA, 10 mM MgCl2, 2 mM DTT, 0.05 mg/mL BSA, and 0.01% Tween 20. The reaction was then incubated for 60-90 minutes at room temperature. The reactions were stopped by the addition of EDTA and Europium labeled antibody, for a final concentration of 15 mM and 1.0-1.5 nM, respectively. HTRF signals were read after 15-120 minutes. A ratio of fluorescence transferred to the labeled substrate (665 nm) relative to fluorescence of the Europium donor (620 nm) represents the extent of phosphorylation. Ratios for treated wells were normalized to DMSO only (100% activity) and no enzyme (0% activity) controls. Normalized data was analyzed using a three or four parameter dose response curve to determine IC50 for each compound and are shown in Table A. Control reference inhibitors were included on each plate.
In general terms: Time-resolved FRET reads energy transfer from a long-lived donor to a nearby acceptor.
As a reminder, the IC50 is the concentration at which inhibition is half-maximal. In the case of `C=CC(=O)Nc1nn(C)c2cc(N3CCC[C@@H](Nc4ncc(C#N)c(OC)n4)C3)ncc12` [Example 1, (R)—N-(6-(3-((5-Cyano-4-methoxypyrimidin-2-yl)amino)piperidin-1-yl)-1-methyl-1H-pyrazolo[4,3-c]pyridin-3-yl)acrylamide], the IC50 was < 50 nM.

As for `C=CC(=O)Nc1nn(C)c2cc(N3CC[C@@H](Nc4ncc(C#N)c(OC)n4)C3)ncc12` [Example 2, (R)—N-(6-(3-((5-Cyano-4-methoxypyrimidin-2-yl)amino)pyrrolidin-1-yl)-1-methyl-1H-pyrazolo[4,3-c]pyridin-3-yl)acrylamide], the IC50 was < 50 nM. The figure for `C=CC(=O)Nc1nc2c(N3CC[C@@H](Nc4ncc(C#N)c(OC)n4)C3)nccn2n1` [Example 3, (R)—N-(8-(3-((5-Cyano-4-methoxypyrimidin-2-yl)amino)pyrrolidin-1-yl)-[1,2,4]triazolo[1,5-a]pyrazin-2-yl)acrylamide] is < 50 nM. Consider `C=CC(=O)Nc1ccc2c(c1)C(=O)N([C@H]1CCC[C@@H](Nc3ncc(-c4ccc(OC)cc4)cn3)C1)C2` [Example 4, N-(2-((1S,3R)-3-((5-(4-Methoxyphenyl)pyrimidin-2-yl)amino)cyclohexyl)-3-oxoisoindolin-5-yl)acrylamide], for which the IC50 is > 500 nM. Consider `C=CC(=O)Nc1ccc2c(c1)C(=O)N([C@H]1CCC[C@@H](Nc3ncc(C)c(C(F)(F)F)n3)C1)C2` [Example 5, N-(2-((1S,3R)-3-((5-Methyl-4-(trifluoromethyl)pyrimidin-2-yl)amino)cyclohexyl)-3-oxoisoindolin-5-yl)acrylamide], for which the IC50 was < 50 nM. Take `C=CC(=O)Nc1ccc2c(c1)C(=O)N([C@H]1CCC[C@@H](Nc3ncc(OC(F)F)cn3)C1)C2` [Example 6, N-(2-((1S,3R)-3-((5-(Difluoromethoxy)pyrimidin-2-yl)amino)cyclohexyl)-3-oxoisoindolin-5-yl)acrylamide]: the IC50 was < 50 nM.

Regarding `C=CC(=O)Nc1ccc2c(c1)C(=O)N([C@H]1CCC[C@@H](Nc3ncc(C=C)cn3)C1)C2` [Example 7, N-(3-Oxo-2-((1S,3R)-3-((5-vinylpyrimidin-2-yl)amino)cyclohexyl)isoindolin-5-yl)acrylamide], the IC50 is < 50 nM. As for `C=CC(=O)Nc1ccc2c(c1)C(=O)N([C@H]1CCC[C@@H](Nc3ncc(-c4cnn(C)c4)cn3)C1)C2` [Example 8, N-(2-((1S,3R)-3-((5-(1-Methyl-1H-pyrazol-4-yl)pyrimidin-2-yl)amino)cyclohexyl)-3-oxoisoindolin-5-yl)acrylamide], the half-maximal inhibitory concentration (IC50) was > 500 nM. On to `C=CC(=O)Nc1ccc2c(c1)C(=O)N([C@H]1CCC[C@@H](Nc3ncc(C#N)c(C)n3)C1)C2` [Example 9, N-(2-((1S,3R)-3-((5-Cyano-4-methylpyrimidin-2-yl)amino)cyclohexyl)-3-oxoisoindolin-5-yl)acrylamide], for which the IC50 is < 50 nM. On to `C=CC(=O)Nc1ccc2c(c1)C(=O)N([C@H]1CCC[C@@H](Nc3ncc(CC)cn3)C1)C2` [Example 10, N-(2-((1S,3R)-3-((5-Ethylpyrimidin-2-yl)amino)cyclohexyl)-3-oxoisoindolin-5-yl)acrylamide], for which the IC50 is < 50 nM. In the case of `C=CC(=O)Nc1ccc2c(c1)C(=O)N([C@H]1CCC[C@@H](Nc3ncc(C4CC4)cn3)C1)C2` [Example 11, N-(2-((1S,3R)-3-((5-Cyclopropylpyrimidin-2-yl)amino)cyclohexyl)-3-oxoisoindolin-5-yl)acrylamide], the IC50 fell in the range of 50 to 500 nM.

Turning to `C=CC(=O)Nc1ccc2c(c1)C(=O)N([C@H]1CCC[C@@H](Nc3ncc(C(C)C)cn3)C1)C2` [Example 12, N-(2-((1S,3R)-3-((5-Isopropylpyrimidin-2-yl)amino)cyclohexyl)-3-oxoisoindolin-5-yl)acrylamide], the half-maximal inhibitory concentration (IC50) was < 50 nM.

As for `C=CC(=O)Nc1ccc2c(c1)C(=O)N([C@H]1CCC[C@@H](Nc3ncc(C)c(OC)n3)C1)C2` [Example 13, N-(2-((1S,3R)-3-((4-Methoxy-5-methylpyrimidin-2-yl)amino)cyclohexyl)-3-oxoisoindolin-5-yl)acrylamide], the IC50 is 50 to 500 nM. Turning to `C=CC(=O)Nc1c(C)nc2c(N3CCC[C@@H](Nc4ncc(C#N)c(OC)n4)C3)nccn12` [Example 14, (R)—N-(8-(3-((5-Cyano-4-methoxypyrimidin-2-yl)amino)piperidin-1-yl)-2-methylimidazo[1,2-a]pyrazin-3-yl)acrylamide], the concentration for half-maximal inhibition (IC50) is < 50 nM. Consider `C=CC(=O)Nc1ccc2c(c1)C(=O)N([C@H]1CCC[C@@H](Nc3ccc(C#N)c(C)n3)C1)C2` [Example 15, N-(2-((1S,3R)-3-((5-Cyano-6-methylpyridin-2-yl)amino)cyclohexyl)-3-oxoisoindolin-5-yl)acrylamide], for which the IC50 is > 500 nM. Take `C=CC(=O)Nc1ccc2c(c1)C(=O)N([C@H]1CCC[C@@H](Nc3cc(C)c(C#N)cn3)C1)C2` [Example 16, N-(2-((1S,3R)-3-((5-Cyano-4-methylpyridin-2-yl)amino)cyclohexyl)-3-oxoisoindolin-5-yl)acrylamide]: the IC50 was in the range of 50 to 500 nM. As for `C#Cc1cnc(N[C@@H]2CCC[C@H](N3Cc4ccc(NC(=O)C=C)cc4C3=O)C2)nc1` [Example 17, N-(2-((1S,3R)-3-((5-Ethynylpyrimidin-2-yl)amino)cyclohexyl)-3-oxoisoindolin-5-yl)acrylamide], the IC50 was < 50 nM. Take `C=CC(=O)Nc1ccc2c(c1)C(=O)N([C@H]1CCC[C@@H](Nc3cc(C(F)(F)F)c(C#N)cn3)C1)C2` [Example 18, N-(2-((1S,3R)-3-((5-Cyano-4-(trifluoromethyl)pyridin-2-yl)amino)cyclohexyl)-3-oxoisoindolin-5-yl)acrylamide]: the half-inhibitory concentration (IC50) is < 50 nM.

Consider `C=CC(=O)Nc1ccc2c(c1)C(=O)N([C@H]1CCC[C@@H](Nc3cc(C#N)c(C(F)(F)F)cn3)C1)C2` [Example 19, N-(2-((1S,3R)-3-((4-Cyano-5-(trifluoromethyl)pyridin-2-yl)amino)cyclohexyl)-3-oxoisoindolin-5-yl)acrylamide], for which the half-maximal inhibitory concentration (IC50) is < 50 nM. As to `C=CC(=O)Nc1nn(C)c2c(N3CC[C@@H](Nc4ncc(C#N)cn4)C3)cccc12` [Example 20, (R)—N-(7-(3-((5-Cyanopyrimidin-2-yl)amino)pyrrolidin-1-yl)-1-methyl-1H-indazol-3-yl)acrylamide], the IC50 lay in the range of 50 to 500 nM. In the case of `C=CC(=O)Nc1nn(C)c2cc(N3CC[C@@H](Nc4ncc(C#N)c(OC)n4)C3)ccc12` [Example 21, (R)—N-(6-(3-((5-Cyano-4-methoxypyrimidin-2-yl)amino)pyrrolidin-1-yl)-1-methyl-1H-indazol-3-yl)acrylamide], the IC50 fell in the range of 50 to 500 nM. In the case of `C=CC(=O)Nc1nc2cccc(N3CCC[C@@H](Nc4ncc(C#N)c(OC)n4)C3)n2n1` [Example 22, (R)—N-(5-(3-((5-Cyano-4-methoxypyrimidin-2-yl)amino)piperidin-1-yl)-[1,2,4]triazolo[1,5-a]pyridin-2-yl)acrylamide], the IC50 is < 50 nM.

With `C=CC(=O)Nc1nc2cccc(N3CC[C@@H](Nc4ncc(C#N)c(OC)n4)C3)n2n1` [Example 23, (R)—N-(5-(3-((5-Cyano-4-methoxypyrimidin-2-yl)amino)pyrrolidin-1-yl)-[1,2,4]triazolo[1,5-a]pyridin-2-yl)acrylamide], the IC50 is < 50 nM. Consider `C=CC(=O)Nc1cccc2c1cnn2[C@H]1CCC[C@@H](Nc2ncc(C#N)c(OC)n2)C1` [Example 24, N-(1-((1S,3R)-3-((5-Cyano-4-methoxypyrimidin-2-yl)amino)cyclohexyl)-1H-indazol-4-yl)acrylamide], for which the IC50 is < 50 nM. For `C=CC(=O)Nc1ccc2c(cnn2[C@H]2CCC[C@@H](Nc3ncc(C#N)c(OC)n3)C2)c1` [Example 25, N-(1-((1S,3R)-3-((5-Cyano-4-methoxypyrimidin-2-yl)amino)cyclohexyl)-1H-indazol-5-yl)acrylamide], the IC50 was in the range of 50 to 500 nM. The value for `C=CC(=O)Nc1ccc2c(ccn2[C@H]2CCC[C@@H](Nc3ncc(C#N)c(OC)n3)C2)c1` [Example 26, N-(1-((1S,3R)-3-((5-Cyano-4-methoxypyrimidin-2-yl)amino)cyclohexyl)-1H-indol-5-yl)acrylamide] was > 500 nM; that for `C=CC(=O)Nc1cccc2c1ncn2[C@H]1CCC[C@@H](Nc2ncc(C#N)c(OC)n2)C1` [Example 27, N-(1-((1S,3R)-3-((5-Cyano-4-methoxypyrimidin-2-yl)amino)cyclohexyl)-1H-benzo[d]imidazol-4-yl)acrylamide] was < 50 nM.
